This data set in a line: Human HepG2 cell viability assay in 384 well format. The class given is toxicity, cell-based. Also on record: dose 125 nL, time 70.5 hour; concentration not given beside the values. The conditions noted are these: HepG2 cells, read-out: Inhibition.

For `CCc1nc(C2CCCN(C(=O)NC3CC3)C2)no1` (stereo unspecified), the cytotoxicity at 70.5 h is -0.741%. The same measure for `Cc1ncc(C(=O)NC2CCc3nccn3C2)c(C(C)C)n1` (stereo unspecified): -3.83%; for `CCc1n[nH]c(C2CN(C(=O)c3ccnc(C4CC4)n3)CCO2)n1` (stereo unspecified): -5.63%; for `COc1ccc(CC(=O)N2CCCC2Cn2cc(C)cn2)cc1OC` (stereo unspecified): -0.349%.

Take `O=C(CCc1ccccn1)N1CCCN(C(=O)CC2CCCC2)CC1`: the cytotoxicity at 70.5 h amounted to 4.27%. As for `CCn1cc(CN2CCCN(C(=O)c3ccccc3C)CC2)cn1`, the cytotoxicity at 70.5 h was -2.18%. As for `Cc1nn(C)c(Cl)c1C1CCCN1C(=O)c1ccnc(N(C)C)c1` (stereo unspecified), the figure is -2.23%; as for `Cc1nc(CN(C)C2CCN(CCc3ccc4c(c3)CCO4)C2)no1` (stereo unspecified), 1.48%. As for `Cc1nc(CN(C)C2CCN(Cc3cccc(F)c3)C2)no1` (stereo unspecified), the figure is 1.26%; as for `CCc1noc(CNC2CCCN(Cc3noc(C4CC4)n3)C2)n1` (stereo unspecified), -5.98%; as for `CNc1cc2c(nn1)CCN(C(=O)c1coc(Br)c1)C2`, 17.6%. The same measure for `CCc1noc(C)c1C(=O)N1CCCN(Cc2cscn2)CC1`: -10.2%; for `CCn1cc(CN2CCCN(C(=O)c3ccccc3OC)CC2)cn1`: -15.6%; for `CCn1cc(CN2CCCN(C(=O)c3ccc(C)o3)CC2)cn1`: 20.7%. Consider `O=C(NCCC(=O)N1CCCc2ccccc21)c1ccc(F)cc1F`, for which the cytotoxicity at 70.5 h is -14.2%. Turning to `Cc1nc(CN(C)C2CCN(Cc3cccc4c3OCCO4)C2)no1` (stereo unspecified), the cytotoxicity at 70.5 h worked out at 28.1%.

Regarding `COc1c(CNCC(O)c2cccc(F)c2)c(C)nn1C` (stereo unspecified), the cytotoxicity at 70.5 h is -9.63%. As for `CC(C)C(=O)NCc1ccc(N(C)C)cc1`, the figure is -4.78%. `CN(C)c1cc(CNC(=O)c2ccc(O)nc2)ccn1`: the cytotoxicity at 70.5 h came out at 14.5%. As for `Cn1cnnc1C1CCCN(C(=O)c2ccccn2)C1` (stereo unspecified), the figure is 16%.

Consider `COc1c(CNCC(O)c2ccccc2)c(C(C)C)nn1C` (stereo unspecified), for which the cytotoxicity at 70.5 h is -9.73%. The same measure for `COc1c(CNCC(O)c2ccc(C)cc2)c(C(C)C)nn1C` (stereo unspecified): -3.08%. For `CCn1cc(CN2CCCN(C(=O)c3ccoc3)CC2)cn1`, the cytotoxicity at 70.5 h turned out to be 9.04%. The same measure for `CCn1cc(CN2CCCN(C(=O)c3cccn3C)CC2)cn1`: -7.92%; for `COc1c(C2CCCN2C(=O)c2ccc(O)nc2)c(C)nn1C` (stereo unspecified): -8.59%. As for `COc1c(C2CCCN2C(=O)c2ccc(N(C)C)nn2)c(C)nn1C` (stereo unspecified), the figure is -8.95%; as for `O=C(NCC(=O)N1CCCc2ccccc21)c1c(O)cc(F)cc1F`, 0.334%.

For the molecule `CC(C)Cn1[nH]cc/c1=N\C(=O)CN1CCOC(Cn2cccn2)C1` (stereo unspecified), the cytotoxicity at 70.5 h amounted to 21.5%. The same measure for `Cc1ccc(CN2CCCN(Cc3cscn3)CC2)cc1`: 3.58%; for `N#CCc1ccc(OCC(=O)N2CCCC(n3cccn3)C2)cc1` (stereo unspecified): -10.5%; for `O=C(c1cccc2c1OCCO2)N1CCCC1Cn1cccn1` (stereo unspecified): -8.07%. Consider `Cc1cc(NC(=O)CN2CCOC(Cn3nc(C)cc3C)C2)n(C)n1` (stereo unspecified), for which the cytotoxicity at 70.5 h was -8.28%. As for `COc1ccc(CCCC(=O)N2CCCC(n3cccn3)C2)cc1` (stereo unspecified), the figure is 14.5%; as for `COc1c(C)cnc(CN(C)C(=O)c2ccccc2F)c1C`, -4.79%. In the case of `Cn1cnnc1C1CCCN(C(=O)CCc2ccc3c(c2)OCO3)C1` (stereo unspecified), the cytotoxicity at 70.5 h was 15.2%. As for `COc1ccc(NC(=O)N2CCCCCC2c2ccncc2)cn1` (stereo unspecified), the figure is -6.87%; as for `COc1ccc(NC(=O)N2CCCC2c2ccncc2)cn1` (stereo unspecified), -11.6%; as for `N#Cc1cccc(CN2CCN(Cc3cscn3)CC2)c1`, -10%.

For `Cc1noc2ncc(C(=O)N3CCCC(n4cccn4)C3)cc12` (stereo unspecified), the cytotoxicity at 70.5 h is -2.98%. On to `N#Cc1ccc(OCC(=O)N2CCCC(n3cccn3)C2)cc1` (stereo unspecified), for which the cytotoxicity at 70.5 h is -4.85%. For the molecule `Cc1nnc(NC(=O)CN2CCOC(Cn3cccn3)C2)s1` (stereo unspecified), the cytotoxicity at 70.5 h is -6.17%. The same measure for `O=C(c1cccc2c1OCCO2)N1CCCCC1Cn1cccn1` (stereo unspecified): -6.1%.

Take `Cc1cnn(CC2CCCCN2C(=O)c2cccc3c2OCO3)c1` (stereo unspecified): the cytotoxicity at 70.5 h is -8.6%. The same measure for `CC(C)c1ccsc1C(=O)N1CCCN(Cc2cscn2)CC1`: 15.1%; for `Cc1cnn(CCNCC(=O)NCC2(c3ccccc3)CCC2)c1`: 22.8%. The same measure for `CCn1c(C)nnc1CN(C)C1CCN(CCc2ccncc2)C1` (stereo unspecified): -3.16%; for `O=C(NCCNc1ccc(C(F)(F)F)cn1)c1cncc(Br)c1`: -12.5%; for `CCn1cnnc1CNC(=O)N1CCN(Cc2ccccc2)CC1`: -1.29%. Turning to `CC(CNC(=O)Nc1cn[nH]c1)N1CCOCC1` (stereo unspecified), the cytotoxicity at 70.5 h is -12.1%.

With `Cc1nn(C)c(N2CCOCC2)c1CNCc1ccnc(N(C)C)c1`, the cytotoxicity at 70.5 h was -5.34%. Turning to `CS(=O)(=O)NC1CCCN(C(=O)NCc2cccnc2)C1` (stereo unspecified), the cytotoxicity at 70.5 h was -0.126%.

Take `Cc1nn(C)c(N2CCOCC2)c1CNCc1ccc(Cl)s1`: the cytotoxicity at 70.5 h is -2.69%. As for `COc1ccnc(N2CCN(C(=O)Cc3ccc(C#N)cc3)CC2)n1`, the figure is -0.995%; as for `Cc1nc2c(c(C)c1CC(=O)NCc1cccc(C#N)c1)c(=O)[nH]n2C`, -2.99%. As for `Cc1nc(C)n(CC2CCCN(Cc3ccc(C(N)=O)cc3)C2)n1` (stereo unspecified), the figure is -4.6%; as for `COc1ccccc1OCCC(=O)N1CCCC1Cn1cc(C)cn1` (stereo unspecified), -6.74%. The same measure for `O=C(CCc1nccs1)N1CCN(c2ncccn2)CC1`: -1.61%; for `Cn1cnnc1C1CCCN(C(=O)c2cnc3ccccc3n2)C1` (stereo unspecified): -1.48%. For `COc1c(C2CCCN2C(=O)c2ccc3cc[nH]c3c2)c(C)nn1C` (stereo unspecified), the cytotoxicity at 70.5 h is -2.48%.

For the molecule `COc1c(C2CCCN2C(=O)c2cccc(C(N)=O)c2)c(C)nn1C` (stereo unspecified), the cytotoxicity at 70.5 h was 18.9%. The same measure for `COc1c(C2CCCN2C(=O)c2ccnc(N(C)C)c2)c(C)nn1C` (stereo unspecified): -6.74%. For `Cc1ncsc1C(=O)N1CCCN(Cc2cscn2)CC1`, the cytotoxicity at 70.5 h was -12.1%. The same measure for `CC1CN(C(=O)CN(Cc2ccccc2Br)C2CC2)CCO1` (stereo unspecified): -0.289%; for `Cc1cc(CN2CCN(C(=O)c3sccc3C(C)C)CC2)no1`: -0.556%; for `c1ccc2oc(CCCN3CCOC(Cn4cccn4)C3)nc2c1` (stereo unspecified): 0.524%. As for `COc1c(CNCC(c2cccc(F)c2)N(C)C)c(C(C)C)nn1C` (stereo unspecified), the cytotoxicity at 70.5 h turned out to be 12.7%. As for `CS(=O)(=O)c1ccc(CNC2CCCN(c3cccnn3)C2)cc1` (stereo unspecified), the figure is -6.92%. The same measure for `OCC1CCCN1c1cc(N2CCC(OC3CCCC3)CC2)ncn1` (stereo unspecified): -3.18%; for `Cc1noc(C(C)C)c1C(=O)N1CCCN(Cc2cscn2)CC1`: 1.02%.

In the case of `Cc1cccc(C)c1NC(=O)CCNC(=O)c1ccoc1`, the cytotoxicity at 70.5 h is -3.89%.

`Cc1cccc(C)c1OCCNC(=O)NC(C)c1nncn1C` (stereo unspecified): the cytotoxicity at 70.5 h was found to be 41.6%. The same measure for `Cc1ccoc1C(=O)NCC(Cc1ccc(F)cc1)C(N)=O` (stereo unspecified): -3.51%; for `CCOc1ccc(CC(CNC(=O)c2ccoc2)C(N)=O)cc1` (stereo unspecified): 49.1%; for `CCOc1ccc(CC(CNC(=O)c2occc2C)C(N)=O)cc1` (stereo unspecified): 6.46%. As for `NC(=O)c1ccc(OCC(=O)N2CCCC(n3cccn3)C2)cc1` (stereo unspecified), the figure is -12%; as for `Cc1oc(C)c(C(=O)N2CCCN(Cc3cscn3)CC2)c1C`, 5.51%; as for `Cc1cc(C)n(C2CCCN(C(=O)c3cnc4onc(C)c4c3)C2)n1` (stereo unspecified), -7.95%. In the case of `Cc1nc(C)n(C2CCCN(C(=O)c3cc4ccccc4n3C)C2)n1` (stereo unspecified), the cytotoxicity at 70.5 h was -1.56%.

For `CC(C)c1nnc2n1CCN(C(=O)c1ccc(CN(C)C)cc1)C2`, the cytotoxicity at 70.5 h was found to be 3.04%. The same measure for `CC(C)c1nccn1C1CCCN(C(=O)c2ccnc(N(C)C)c2)C1` (stereo unspecified): -2.47%.

Consider `c1cnnc(N2CCCC(NCc3ccc(-n4ccnc4)cc3)C2)c1` (stereo unspecified), for which the cytotoxicity at 70.5 h was -10.5%. As for `COc1ccccc1C(=O)N(C)Cc1ncc(C)c(OC)c1C`, the figure is -6.37%; as for `CCn1c(C)cc(C(=O)N2CCCC(c3nc(C)no3)C2)c1C` (stereo unspecified), -3.95%. As for `CN(CC1CN(Cc2cn3ccsc3n2)CCO1)c1cccnn1` (stereo unspecified), the figure is -2.29%; as for `CCc1[nH]ncc1C(=O)N1CCCN(Cc2cnn(C)c2)CC1`, -10.9%. The same measure for `CNC(=O)CN1CCC(NC(=O)N(C)Cc2cc(C)on2)CC1`: -10.8%.

For the molecule `CN(Cc1cccs1)C(=O)CS(=O)(=O)Cc1ccc(Cl)c(Cl)c1`, the cytotoxicity at 70.5 h is 26.3%. For `CC(OCC(F)(F)F)C(=O)Nc1ccc(-n2cncn2)nc1` (stereo unspecified), the cytotoxicity at 70.5 h is -12.6%. As for `CCc1nnc(CN2CCN(C(=O)c3ccccn3)CC2)o1`, the figure is -21.8%; as for `CN(Cc1ccccc1F)C(=O)CS(=O)(=O)Cc1ccc(Cl)c(Cl)c1`, -19%; as for `CNS(=O)(=O)c1ccc(CNC(=O)NCC2CCOC2)cc1` (stereo unspecified), -31.2%. The same measure for `Cc1cc(CN(C)C(=O)NC2CCS(=O)(=O)C2)no1` (stereo unspecified): -15.8%. The same measure for `CC(C)C(=O)NCc1cccc(N2CCCCC2=O)c1`: -12.2%; for `Cn1cnnc1C1CCCN(C(=O)NCCc2ccccc2F)C1` (stereo unspecified): -11.6%; for `c1coc(-c2noc(CN3CC(n4cccn4)C3)n2)c1`: -7.3%. For `CCn1cnnc1C1CCN(C(=O)COc2ccccc2)CC1`, the cytotoxicity at 70.5 h is -9.36%.

With `Cc1oc(-c2ccco2)nc1CC(=O)N1CCN(C2CCC2)CC1`, the cytotoxicity at 70.5 h was -1.12%.

Take `Cc1noc(C2CCCN(C(=O)c3ccc(Br)cc3F)C2)n1` (stereo unspecified): the cytotoxicity at 70.5 h was -7.35%. As for `Cc1nc(C(=O)N2CCC(Nc3cccnn3)CC2)cs1`, the figure is 28.6%; as for `Cc1nnc(N2CCC(CN(C)C(C)C)CC2)c(C#N)c1C`, 20.7%; as for `CC(C)c1nc(CN2CCCCC2)cs1`, -4.92%.

(Values after ChEMBL document CHEMBL3507680, “University of Dundee, Gates Library screen for HepG2 cell viability”.)
